This note sets out measurements from patent publication US20030157670A1 (priority 2002, published 2003).

Assay [1] deals with capsaicin decomposing/synthesizing enzyme (purified enzyme from Streptomyces mobaraensis IFO13819). The assay is described as follows: Synthesis of capsaicin analogs from vanillylamine and fatty acids with the enzyme of the invention. It is filed as biochemical. The note with it: vanillylamine hydrochloride 10 mM, fatty acid 100 mM, 30 U enzyme, water/n-hexane, 37° C., 8 days, 0.5 mM CoCl2. Here is the method:
Next, capsaicin analogs were synthesized by using the capsaicin decomposing/synthesizing enzyme (purified enzyme from Streptomyces mobaraensis IFO13819) according to the present invention.
(§1) The reaction temperature was 37° C.
(§2) As a comparative example, aminoacylase was used. The resulting capsaicin analogs were quantitatively measured by the HPLC analysis of the hexane phases.

The subject of assay [2] is aminoacylase. The assay is described as follows: Synthesis of capsaicin analogs from vanillylamine and fatty acids with aminoacylase (comparative example). It is filed as biochemical. The note with it: vanillylamine hydrochloride 10 mM, fatty acid 100 mM, water/n-hexane, 37° C., 8 days, 0.5 mM CoCl2. Here is the method:
as §1, §2

Assay [3] deals with capsaicin decomposing/synthesizing enzyme. It is filed as biochemical, Streptomyces mobaraensis IFO 13819.
The test system of assay [4] is capsaicin decomposing/synthesizing enzyme (purified enzyme). The assay is classed as biochemical, Streptomyces mobaraensis IFO 13819.

For the compound `CCCCCCCCCCCC(=O)O` [Lauric acid], in assay [1], the “Synthesis of capsaicin analogs, Capsaicin decomposing synthesizing enzyme of the invention” value is given as 1.25 mM. The “Synthesis of capsaicin analogs, Aminocylase” value in assay [2] was determined as 0.051 mM.

As for `[Cl-].[Cl-].[Co+2]` [CoCl2], in assay [3], the “residual activity, cobalt ions added versus not added” value is on record as “higher residual activity”. Further, the “effect on capsaicin hydrolysis activity of the purified enzyme” value in assay [4] was “enhanced”.

For `CCCCCCCCCCCCCC(=O)O` [Myristic acid], the “Synthesis of capsaicin analogs, Capsaicin decomposing synthesizing enzyme of the invention” value in assay [1] was found to be 0.24 mM.
